Earlier results as cited in patent US6534473B1, “Process for the manufacture of tablet detergent compositions” (Unilever Patent Holdings BV, priority 1998, dated 2003).
Like-named read-outs stand apart in the source and are kept apart here.

[1] = at 20° C., other common materials, by contrast

solubility in water (at 20° C.) | Water Solubility (grams of solid to form a saturated solution in 100 grams of water at 20° C., highly water-soluble materials) | Compound | Water Solubility [1]
 |  | O=P(O)(O)OP(=O)(O)OP(=O)(O)O [Sodium tripolyphosphate anhydrous] | 15 g/100 g
exceeding 100 gms per 100 ml water | >100 g/100 g | NC(N)=O [Urea] | 
 |  | O=BO[O-].[Na+] [Sodium perborate anhydrous] | 3.7 g/100 g
